Data as given in patent US10494366B2, “Pesticidally active amide heterocyclic derivatives with sulphur containing substituents” (Syngenta Participations AG, priority 2014, dated 2019).

Tests used:
Format in all cases: in vivo
[1] = tested on: Spodoptera littoralis (Egyptian cotton leaf worm); test: Example B1: Spodoptera littoralis, sprayed cotton leaf discs; conditions: foliar, 72 h, application rate 200 ppm, L1 larvae, 3 days after infestation, read-out: control in at least one of the three categories (mortality, anti-feedancy or growth inhibition)
[2] = tested on: Spodoptera littoralis (Egyptian cotton leaf worm); test: Example B2: Spodoptera littoralis, systemic test via lettuce roots in agar; conditions: 144 h, application rate 12.5 ppm, Spodoptera eggs, 6 days after infestation, read-out: control in at least one of the three categories (mortality, anti-feedancy or growth inhibition)
[3] = tested on: Plutella xylostella (diamond back moth); test: Example B3: Plutella xylostella, treated artificial diet; conditions: 120 h, application rate 200 ppm, L2 larvae, 5 days after infestation, read-out: effect in at least one of the two categories (mortality or growth inhibition)
Method: 24-well microtiter plates with artificial diet were treated with aqueous test solutions prepared from 10,000 ppm DMSO stock solutions by pipetting. After drying, the plates were infested with L2 larvae (10 to 15 per well). The samples were assessed for mortality and growth inhibition in comparison to untreated samples 5 days after infestation.

[4] = tested on: Diabrotica balteata (corn root worm); test: Example B4: Diabrotica balteata, sprayed maize sprouts; conditions: 96 h, application rate 200 ppm, L2 larvae, 4 days after infestation, read-out: effect in at least one of the two categories (mortality or growth inhibition)
Method: Maize sprouts, placed on an agar layer in 24-well microtiter plates were treated with aqueous test solutions prepared from 10,000 ppm DMSO stock solutions by spraying. After drying, the plates were infested with L2 larvae (6 to 10 per well). The samples were assessed for mortality and growth inhibition in comparison to untreated samples 4 days after infestation.

[5] = tested on: Myzus persicae (green peach aphid); test: Example B5: Myzus persicae, sprayed sunflower leaf discs; conditions: foliar, 144 h, application rate 200 ppm, aphid population of mixed ages, 6 days after infestation
Method: Sunflower leaf discs were placed on agar in a 24-well microtiter plate and sprayed with aqueous test solutions prepared from 10,000 ppm DMSO stock solutions. After drying, the leaf discs were infested with an aphid population of mixed ages. The samples were assessed for mortality 6 days after infestation.

[6] = tested on: Euschistus heros (neotropical brown stink bug); test: Example B6: Euschistus heros, sprayed soybean leaf; conditions: 120 h, application rate 200 ppm, N-2 nymphs, 5 days after infestation
Text: Soybean leaf on agar in 24-well microtiter plates were sprayed with aqueous test solutions prepared from 10,000 ppm DMSO stock solutions. After drying the leaf were infested with N-2 nymphs.

[7] = tested on: Myzus persicae (green peach aphid); test: Example B7: Myzus persicae, systemic test with roots of pea seedlings in test solution; conditions: 144 h, test rate 24 ppm, aphid population of mixed ages, 6 days
Text: Roots of pea seedlings infested with an aphid population of mixed ages were placed directly in the aqueous test solutions prepared from 10,000 DMSO stock solutions.

[8] = tested on: Bemisia tabaci (cotton white fly); test: Example B10: Bemisia tabaci, sprayed cotton leaf discs; conditions: foliar, 144 h, application rate 200 ppm, adult white flies, 6 days after incubation
Method: Cotton leaf discs were placed on agar in 24-well microtiter plates and sprayed with aqueous test solutions prepared from 10,000 ppm DMSO stock solutions. After drying the leaf discs were infested with adult white flies. The samples were checked for mortality 6 days after incubation.

[9] = tested on: Tetranychus urticae (two-spotted spider mite); test: Example B8: Tetranychus urticae, sprayed bean leaf discs; conditions: foliar, 192 h, application rate 200 ppm, mixed population (mobile stages), 8 days after infestation
Text: Bean leaf discs on agar in 24-well microtiter plates were sprayed with aqueous test solutions prepared from 10,000 ppm DMSO stock solutions. After drying the leaf discs were infested with a mite population of mixed ages.

CCS(=O)(=O)c1cc(-c2ncccn2)cnc1C(=O)/N=c1\ccc(SC(F)(F)F)cn1C [Compound P17, (N)-3-ethylsulfonyl-N-[1-methyl-5-(trifluoromethylsulfanyl)-2-pyridylidene]-5-pyrimidin-2-yl-pyridine-2-carboxamide]
≥ 80%: percent control (mortality, anti-feedant effect or growth inhibition) at 200 ppm [1] | percent control (mortality, anti-feedant effect or growth inhibition) at 12.5 ppm [2] | percent effect (mortality or growth inhibition) at 200 ppm [3] | percent effect (mortality or growth inhibition) at 200 ppm [4] | mortality at 200 ppm [5] | mortality at 200 ppm [6] | mortality at 24 ppm [7]

CCS(=O)(=O)c1cc(-c2ncc(Cl)s2)cnc1C(=O)/N=c1\sc(C(F)(F)F)nn1C [Compound P57]
≥ 80%: percent control (mortality, anti-feedant effect or growth inhibition) at 200 ppm [1] | percent effect (mortality or growth inhibition) at 200 ppm [3] | percent effect (mortality or growth inhibition) at 200 ppm [4] | mortality at 200 ppm [8]

CCS(=O)(=O)c1cc(-c2cncs2)cnc1C(=O)/N=c1\sc(C(F)(F)F)nn1C [Compound P39]
≥ 80%: percent control (mortality, anti-feedant effect or growth inhibition) at 200 ppm [1] | percent effect (mortality or growth inhibition) at 200 ppm [4] | mortality at 200 ppm [8]

CCS(=O)(=O)c1cc(-c2ccc(Cl)c(Cl)n2)cnc1C(=O)/N=c1\sc(C(F)(F)F)nn1C [Compound P45]
≥ 80%: percent control (mortality, anti-feedant effect or growth inhibition) at 200 ppm [1] | percent control (mortality, anti-feedant effect or growth inhibition) at 12.5 ppm [2] | percent effect (mortality or growth inhibition) at 200 ppm [3] | percent effect (mortality or growth inhibition) at 200 ppm [4] | mortality at 200 ppm [5] | mortality at 200 ppm [6] | mortality at 200 ppm [9]

CCS(=O)(=O)c1cc(C2(C#N)CC2)cnc1C(=O)/N=c1\sc(C(F)(F)C(F)(F)F)nn1C [Compound P20, (N)-5-(1-cyanocyclopropyl)-3-ethylsulfonyl-N-[3-methyl-5-(1,1,2,2,2-pentafluoroethyl)-1,3,4-thiadiazol-2-ylidene]pyridine-2-carboxamide]
≥ 80%: percent control (mortality, anti-feedant effect or growth inhibition) at 200 ppm [1] | percent control (mortality, anti-feedant effect or growth inhibition) at 12.5 ppm [2] | percent effect (mortality or growth inhibition) at 200 ppm [3] | percent effect (mortality or growth inhibition) at 200 ppm [4] | mortality at 200 ppm [5] | mortality at 200 ppm [6] | mortality at 200 ppm [8]

CCS(=O)(=O)c1cc(-c2ncccn2)cnc1C(=O)/N=c1\sc(C(F)(F)F)nn1C [Compound P42]
≥ 80%: percent control (mortality, anti-feedant effect or growth inhibition) at 200 ppm [1] | percent control (mortality, anti-feedant effect or growth inhibition) at 12.5 ppm [2] | percent effect (mortality or growth inhibition) at 200 ppm [3] | percent effect (mortality or growth inhibition) at 200 ppm [4] | mortality at 200 ppm [5] | mortality at 200 ppm [6] | mortality at 24 ppm [7]

CCS(=O)(=O)c1cc(C2CC2)cnc1C(=O)/N=c1\sc(C(F)(F)F)nn1C [Compound P63]
≥ 80%: percent control (mortality, anti-feedant effect or growth inhibition) at 200 ppm [1] | percent effect (mortality or growth inhibition) at 200 ppm [3] | percent effect (mortality or growth inhibition) at 200 ppm [4] | mortality at 200 ppm [5] | mortality at 200 ppm [6] | mortality at 24 ppm [7]
